Consider 7 compounds from patent US20110086759A1, “CHEMICAL COMPOUNDS” (SYNGENTA CROP PROTECTION, INC., priority 2007, published 2011).

SMILES strings stand for the structures.

Assay type in all cases: in vivo
For experiment [1], the system named is Solanum nigrum (SOLNI). In words: Pre-emergence biological efficacy, glasshouse pot test. The settings on record: 312 h. In outline: (§1)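 Sow seeds in pots of standard soil; after one day in the glasshouse, spray test compound (1000 or 250 g/ha) in aqueous acetone/water with 0.5% Tween 20. Grow 13 days at 24/16 °C day/night, then score damage from 0 to 100.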

In experiment [2] the test system is Alopecurus myosuroides (ALOMY). The description is as above. The settings on record: 312 h. In outline: as §1
The subject of experiment [3] is Echinochloa crus-galli (ECHCG). The description is as above. The settings on record: 312 h. In outline:
as §1

Experiment [4] deals with Setaria faberi (SETFA). Described as above. The settings on record: 312 h. In outline:
as §1

The test system of experiment [5] is Ipomea hederaceae (IPOHE). The experiment is described as above. The settings on record: Ipomoea hederacea, 312 h. In outline: as §1
Experiment [6] deals with Amaranthus retoflexus (AMARE). The experiment is described as above. The settings on record: Amaranthus retroflexus, 312 h. In outline:
as §1

In experiment [7] the test system is Solanum nigrum (SOLNI). Description: Post-emergence biological efficacy, glasshouse pot test. The settings on record: 312 h. In outline: (§2)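 Scored 13 days after spraying on a 0 (no damage) to 100 (total damage) scale. Treatment was a post-emergence spray at 1000 or 250 g/ha, from acetone/water 50:50 plus 0.5% Tween 20, onto 8-day-old plants in soil pots. Growth at 24/16° C, 14 h photoperiod, 65% humidity, watered twice daily.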

Experiment [8] relates to Alopecurus myosuroides (ALOMY). Described as above. The note with it: 312 h. In outline:
as §2

The subject of experiment [9] is Echinochloa crus-galli (ECHCG). The description is as above. The settings on record: 312 h. In outline: as §2
The subject of experiment [10] is Setaria faberi (SETFA). Described as above. The settings on record: 312 h. In outline:
as §2

Experiment [11] deals with Ipomea hederaceae (IPOHE). The experiment is described as above. The settings on record: Ipomoea hederacea, 312 h. In outline:
as §2

Experiment [12] has as its system Amaranthus retoflexus (AMARE). Described as above. The settings on record: Amaranthus retroflexus, 312 h. In outline:
as §2

Setting [13] is: pre-emergence, rate 1,000 g/ha, evaluated after 13 days (100=total damage to plant; 0=no damage), read-out: Percentage damage caused to weed species, SOLNI.
Setting [14] is: pre-emergence, rate 1,000 g/ha, evaluated after 13 days (100=total damage to plant; 0=no damage), read-out: Percentage damage caused to weed species, ALOMY.
The mark [15] stands for this setting: pre-emergence, rate 1,000 g/ha, evaluated after 13 days (100=total damage to plant; 0=no damage), read-out: Percentage damage caused to weed species, ECHCG.
Where [16] appears, read: pre-emergence, rate 1,000 g/ha, evaluated after 13 days (100=total damage to plant; 0=no damage), read-out: Percentage damage caused to weed species, SETFA.
Where [17] appears, read: pre-emergence, rate 1,000 g/ha, evaluated after 13 days (100=total damage to plant; 0=no damage), read-out: Percentage damage caused to weed species, IPOHE.
[18] abbreviates: pre-emergence, rate 1,000 g/ha, evaluated after 13 days (100=total damage to plant; 0=no damage), read-out: Percentage damage caused to weed species, AMARE.
[19] abbreviates: Rate 1,000 g/ha, post-emergence spray, evaluated after 13 days (100=total damage to plant; 0=no damage to plant), read-out: Percentage damage caused to weed species, post-emergence, SOLNI.
Setting [20] is: Rate 1,000 g/ha, post-emergence spray, evaluated after 13 days (100=total damage to plant; 0=no damage to plant), read-out: Percentage damage caused to weed species, post-emergence, ALOMY.
Where [21] appears, read: Rate 1,000 g/ha, post-emergence spray, evaluated after 13 days (100=total damage to plant; 0=no damage to plant), read-out: Percentage damage caused to weed species, post-emergence, ECHCG.
Setting [22] is: Rate 1,000 g/ha, post-emergence spray, evaluated after 13 days (100=total damage to plant; 0=no damage to plant), read-out: Percentage damage caused to weed species, post-emergence, SETFA.
Setting [23] is: Rate 1,000 g/ha, post-emergence spray, evaluated after 13 days (100=total damage to plant; 0=no damage to plant), read-out: Percentage damage caused to weed species, post-emergence, IPOHE.
Setting [24] is: Rate 1,000 g/ha, post-emergence spray, evaluated after 13 days (100=total damage to plant; 0=no damage to plant), read-out: Percentage damage caused to weed species, post-emergence, AMARE.
Setting [25] is: pre-emergence, 1,000 g/ha, evaluated after 13 days (100=total damage; 0=no damage), read-out: Percentage damage SOLNI.
[26] abbreviates: pre-emergence, 1,000 g/ha, evaluated after 13 days (100=total damage; 0=no damage), read-out: Percentage damage ALOMY.
Setting [27] is: pre-emergence, 1,000 g/ha, evaluated after 13 days (100=total damage; 0=no damage), read-out: Percentage damage ECHCG.
The mark [28] stands for this setting: pre-emergence, 1,000 g/ha, evaluated after 13 days (100=total damage; 0=no damage), read-out: Percentage damage SETFA.
Setting [29] is: pre-emergence, 1,000 g/ha, evaluated after 13 days (100=total damage; 0=no damage), read-out: Percentage damage IPOHE.
The mark [30] stands for this setting: pre-emergence, 1,000 g/ha, evaluated after 13 days (100=total damage; 0=no damage), read-out: Percentage damage AMARE.
Setting [31] is: post-emergence, 1,000 g/ha, evaluated after 13 days (100=total damage; 0=no damage), read-out: Percentage damage caused to weed species, SOLNI.
The mark [32] stands for this setting: post-emergence, 1,000 g/ha, evaluated after 13 days (100=total damage; 0=no damage), read-out: Percentage damage caused to weed species, ALOMY.
Where [33] appears, read: post-emergence, 1,000 g/ha, evaluated after 13 days (100=total damage; 0=no damage), read-out: Percentage damage caused to weed species, ECHCG.
[34] abbreviates: post-emergence, 1,000 g/ha, evaluated after 13 days (100=total damage; 0=no damage), read-out: Percentage damage caused to weed species, SETFA.
The mark [35] stands for this setting: post-emergence, 1,000 g/ha, evaluated after 13 days (100=total damage; 0=no damage), read-out: Percentage damage caused to weed species, IPOHE.
The mark [36] stands for this setting: post-emergence, 1,000 g/ha, evaluated after 13 days (100=total damage; 0=no damage), read-out: Percentage damage caused to weed species, AMARE.

For the compound `COC(=O)c1nc(-c2ccc(Cl)cc2)nc(NC2CC2)c1Cl` [Compound 40-1, 5-Chloro-2-(4-chloro-phenyl)-4-cyclo-propylamino-6-methoxycarbonyl-pyrimidine], the pest or weed control at 1000 g/ha with Solanum nigrum (SOLNI) [1] (setting [13]) is 40%; in experiment [2] (setting [14]), 40%; in experiment [3] (setting [15]) it was 50%; in the experiment on Setaria faberi (SETFA) [4] (setting [16]) it was 30%; in [5] (setting [17]) it was 30%; in [6] (setting [18]), 100%. Also, the pest or weed control at 1000 g/ha worked out at 100% with Solanum nigrum (SOLNI) [7] (setting [19]); 40% in [8] (setting [20]); 50% in experiment [9] (setting [21]); 90% in the experiment on Setaria faberi (SETFA) [10] (setting [22]); 70% in experiment [11] (setting [23]); 100% in experiment [12] (setting [24]).
In the case of `COC(=O)c1nc(C2CC2)nc(NC2CCCC2O)c1Cl` (stereo not drawn) [Compound 4-34, 5-Chloro-2-cyclopropyl-4-(2-hydroxycyclopentylamino)-6-methoxycarbonyl-pyrimidine], the pest or weed control at 1000 g/ha stood at 80% in the experiment on Solanum nigrum (SOLNI) [1] (setting [25]); 30% in [2] (setting [26]); 20% in [3] (setting [27]); 50% in the experiment on Setaria faberi (SETFA) [4] (setting [28]); 90% in experiment [5] (setting [29]); 100% in [6] (setting [30]). Also, the pest or weed control at 1000 g/ha was 80% with Solanum nigrum (SOLNI) [7] (setting [31]); 20% in experiment [8] (setting [32]); 60% in experiment [9] (setting [33]); 60% with Setaria faberi (SETFA) [10] (setting [34]); 60% in [11] (setting [35]); 100% in [12] (setting [36]).
Turning to `C=CCN(Cc1ccc(Cl)s1)c1nc(C2CC2)nc(C(=O)OC)c1Cl` [Compound 151-141, 5-Chloro-4-[N-(5-chlorothiophen-2-ylmethyl)-N-prop-2-en-1-yl-amino]-2-cyclopropyl-6-methoxycarbonyl-pyrimidine], the pest or weed control at 1000 g/ha with Solanum nigrum (SOLNI) [1] (setting [13]) is 0%; in [2] (setting [14]), 10%; in experiment [3] (setting [15]), 0%; with Setaria faberi (SETFA) [4] (setting [16]) it was 0%; in experiment [5] (setting [17]), 40%; in [6] (setting [18]) it was 50%. For the same compound, the pest or weed control at 1000 g/ha with Solanum nigrum (SOLNI) [7] (setting [19]) was determined as 40%; in [8] (setting [20]), 10%; in [9] (setting [21]) it was 10%; with Setaria faberi (SETFA) [10] (setting [22]) it was 60%; in experiment [11] (setting [23]), 70%; in experiment [12] (setting [24]) it was 40%.
Turning to `COC(=O)c1nc(C2CC2)nc(NC(Cc2c[nH]c3ccccc23)C(=O)OC)c1Cl` (stereo not drawn) [Compound 4-290, 5-Chloro-2-cyclopropyl-4-(2-indol-3-yl-1-methoxycarbonyl-ethylamino)-6-methoxycarbonyl-pyrimidine], the pest or weed control at 1000 g/ha in the experiment with Solanum nigrum (SOLNI) [1] (setting [25]) came out at 80%; in experiment [2] (setting [26]) it was 20%; in experiment [3] (setting [27]), 40%; with Setaria faberi (SETFA) [4] (setting [28]) it was 30%; in experiment [5] (setting [29]) it was 90%; in experiment [6] (setting [30]) it was 80%. Also, the pest or weed control at 1000 g/ha in the experiment on Solanum nigrum (SOLNI) [7] (setting [31]) was determined as 80%; in experiment [8] (setting [32]), 30%; in [9] (setting [33]) it was 30%; with Setaria faberi (SETFA) [10] (setting [34]), 50%; in experiment [11] (setting [35]), 70%; in experiment [12] (setting [36]), 100%.
Regarding `COC(=O)c1nc(-c2ccc(F)c(Cl)c2)nc(NCc2ccco2)c1Cl` [Compound 245-48, 5-Chloro-2-(3-chloro-4-fluorophenyl)-4-(furan-2-yl-methyl-amino)-6-methoxy-carbonylpyrimidine], the pest or weed control at 1000 g/ha in the experiment on Solanum nigrum (SOLNI) [1] (setting [13]) stood at 10%; in experiment [2] (setting [14]), 30%; in experiment [3] (setting [15]), 30%; in the experiment on Setaria faberi (SETFA) [4] (setting [16]) it was 30%; in experiment [5] (setting [17]) it was 20%; in experiment [6] (setting [18]), 80%. The pest or weed control at 1000 g/ha in the experiment on Solanum nigrum (SOLNI) [7] (setting [19]) was found to be 90%; in experiment [8] (setting [20]), 20%; in [9] (setting [21]), 40%; in the experiment on Setaria faberi (SETFA) [10] (setting [22]), 70%; in experiment [11] (setting [23]) it was 60%; in [12] (setting [24]), 100%.
As for `COC(=O)c1nc(C2CC2)nc(NCC(F)c2cccc(C(F)(F)F)c2)c1Cl` (stereo not drawn) [Compound 4-237, 5-Chloro-2-cyclopropyl-4-[2-fluoro-2-(3-trifluoromethyl-phenyl)ethylamino]-6-methoxy-carbonylpyrimidine], the pest or weed control at 1000 g/ha with Solanum nigrum (SOLNI) [1] (setting [25]) was determined as 0%; in experiment [2] (setting [26]), 0%; in [3] (setting [27]), 0%; in the experiment on Setaria faberi (SETFA) [4] (setting [28]), 0%; in [5] (setting [29]), 10%; in [6] (setting [30]), 30%. Further, the pest or weed control at 1000 g/ha with Solanum nigrum (SOLNI) [7] (setting [31]) was determined as 70%; in experiment [8] (setting [32]), 0%; in experiment [9] (setting [33]), 30%; in the experiment with Setaria faberi (SETFA) [10] (setting [34]) it was 40%; in experiment [11] (setting [35]) it was 60%; in experiment [12] (setting [36]), 100%.
Turning to `CCCN(Cc1ccc(C)cc1)c1nc(C2CC2)nc(C(=O)OC)c1Cl` [Compound 145-73, 5-Chloro-2-cyclopropyl-6-methoxycarbonyl-4-[N-(4-methyl-phenylmethyl)-N-prop-1-yl-amino]-pyrimidine], the pest or weed control at 1000 g/ha with Solanum nigrum (SOLNI) [1] (setting [13]) worked out at 70%; in experiment [2] (setting [14]), 30%; in experiment [3] (setting [15]) it was 30%; in the experiment on Setaria faberi (SETFA) [4] (setting [16]) it was 20%; in [5] (setting [17]), 20%; in experiment [6] (setting [18]), 100%. Moreover, the pest or weed control at 1000 g/ha with Solanum nigrum (SOLNI) [7] (setting [19]) worked out at 50%; in experiment [8] (setting [20]), 10%; in experiment [9] (setting [21]), 20%; in the experiment with Setaria faberi (SETFA) [10] (setting [22]), 40%; in experiment [11] (setting [23]) it was 70%; in experiment [12] (setting [24]), 80%.
